Patent publication US7863449B2, “Modulators of muscarinic receptors” (Vertex Pharmaceuticals Incorporated, priority 2004, dated 2011)

Legend:
[1] = molecular target: T1, M1 muscarinic receptor (Homo sapiens, UniProt P11229); experiment: Functional mobilization of intracellular calcium (FLIPR), M1-CHO cells; type: cell-based; settings: for Emax: 100% efficacy is the maximum response obtained using Carbachol as a control; for M1 Activity: M1-CHO cells, FLIPR calcium mobilization
T1 construct: expressed in transfected cells; host or cells: CHO (M1-CHO)
T1 sequence (P11229 1-460): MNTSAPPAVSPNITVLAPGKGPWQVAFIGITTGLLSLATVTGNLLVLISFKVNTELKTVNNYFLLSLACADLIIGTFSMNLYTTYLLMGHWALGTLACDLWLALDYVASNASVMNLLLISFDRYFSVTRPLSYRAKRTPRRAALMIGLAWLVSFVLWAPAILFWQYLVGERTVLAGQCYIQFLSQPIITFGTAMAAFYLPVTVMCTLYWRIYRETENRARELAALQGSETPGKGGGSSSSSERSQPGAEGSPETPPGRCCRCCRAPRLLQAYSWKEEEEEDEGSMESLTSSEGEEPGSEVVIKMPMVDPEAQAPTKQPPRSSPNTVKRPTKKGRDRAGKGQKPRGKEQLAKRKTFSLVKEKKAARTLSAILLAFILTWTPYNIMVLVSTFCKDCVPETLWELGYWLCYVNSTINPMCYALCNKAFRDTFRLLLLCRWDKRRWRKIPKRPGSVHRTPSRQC
Description: (§1) Functional Mobilization of Intracellular Calcium to Determine Muscarinic Receptor Activity:
(§2) CHO cells expressing muscarinic receptors (M1 to M5) are grown as monolayers in tissue culture flasks at 37° C. in a humidified atmosphere containing 5% CO2 and passaged every 3-5 days. The growth media is Dulbecco's modified eagles medium (DMEM, Gibco Cat# 12430-054), containing 25 mM Hepes and supplemented with Fetal Bovine Serum (Hyclone, cat# SH30071.03), 0.1 mM of MEM non-essential amino acids (GIBCO, Cat# 11140-050), 1 mM MEM Sodium Pyruvate (GIBCO Cat# 11360-070) and 100 units/ml of Penicillin G and 100 μg/ml of Streptomycin (GIBCO Cat# 15140-122). The recombinant muscarinic receptor cell lines are grown under antibiotic pressure with media containing 25 μg/ml zeocin and 500 μg/ml G418 (M1-CHO), 4 μg/ml puromycin, 50 μg/ml zeocin and 2.5 μg/ml blasticidin (M2 and M4-CHO) or 50 μg/ml zeocin and 4 μg/ml puromycin (M3 and M5-CHO).
(§3) Cells are harvested at 80-90% confluence using Versene (GIBCO Cat# 15040-066), collected by centrifugation and seeded 18-24 hrs prior to running the calcium assay at a density of 5,000-10,000 cells/well in […], clear-bottomed 384-well plates (BD Biocoat, poly-D-lysine, Cat#356663). The day of the experiment, the cells are washed with a plate washer (Bioteck Instruments, ELX 405) using bath1 buffer (140-mM NaCl, 4.5-mM KCl, 2-mM CaCl2, 1-mM MgCl2, 10-mM Hepes-Na, 10-mM Glucose, pH 7.4, with NaOH) containing 1 mM Probenecid. Next, the calcium dye Fluo-3 (25 μl/well of Fluo-3 AM at 4 μM, Molecular Probes F-1241, in Bath 1 buffer containing 1 mM Probenecid) is added to the 25 μl of Bath 1 remaining in each well after the plate wash and the dye is loaded at 37° C. in the tissue culture incubator for 60-90 min. The fluorescent dye is removed using the plate washer with Bath 1 containing 1 mM Probenecid, leaving 25 μl/well of this solution after the wash. Alternatively, cells can be loaded with the calcium indicator from Molecular Devices (Calcium 3 Assay Reagents, Cat # R7181) adding 5 μl of a 5× solution dye in Bath 1 containing 1 mM Probenecid (10 ml per dye flask cat# R7182 to generate a solution 20×) to 20 μl of the same buffer. After loading for 60 min, the experiment can be run without having to remove the dye.
(§4) Compounds are prepared at a 2× fold concentration in a 96-well plate (round bottom, Costar Corning cat# 3656), by reconstituting the pre-spotted compounds in bath 1 containing 1 mM probenecid. The final concentration DMSO is 0.5%, and the amount of DMSO is normalized across the assay plate. To determine an agonist action of the compounds on muscarinic receptors, the reconstituted compounds are added (25 μl compound/well) to the cell assay plate (containing 25 μl/well) using the multi-channel robotic system of the FLIPR 3 Instrument (Molecular Devices, Sunnyvale, Calif.). To determine a functional inhibitory action of the compounds on muscarinic receptors, the reconstituted compounds are added (25 μl compound/well) to the assay plate and pre-incubated for 15 min prior to adding 25 μl of Carbachol at 3× the EC80 for each muscarinic subtype. Alternatively, the compounds can be co-applied simultaneously with the agonist. In both assay modes, the fluorescence is recorded for 60 sec (excitation wavelength is […] and emission wavelength 540 nm) using the FLIPR 3 instrument.
(§5) The potency, efficacy and selectivity of the muscarinic compounds were evaluated by screening the compound activity across the whole family (M1 to M5 cells). Compounds were also screened for activity on other proteins such as other GPCRs and ion channels to determine selectivity on M4 receptors.

[2] = molecular target: T2, M4 muscarinic receptor (Homo sapiens, UniProt P08173); experiment: Functional mobilization of intracellular calcium (FLIPR), M4-CHO cells; type: cell-based; settings: for Emax: 100% efficacy is the maximum response obtained using Carbachol as a control; for M4 Activity: M4-CHO cells, FLIPR calcium mobilization
T2 construct: expressed in transfected cells; host or cells: CHO (M4-CHO)
T2 sequence (P08173 1-479): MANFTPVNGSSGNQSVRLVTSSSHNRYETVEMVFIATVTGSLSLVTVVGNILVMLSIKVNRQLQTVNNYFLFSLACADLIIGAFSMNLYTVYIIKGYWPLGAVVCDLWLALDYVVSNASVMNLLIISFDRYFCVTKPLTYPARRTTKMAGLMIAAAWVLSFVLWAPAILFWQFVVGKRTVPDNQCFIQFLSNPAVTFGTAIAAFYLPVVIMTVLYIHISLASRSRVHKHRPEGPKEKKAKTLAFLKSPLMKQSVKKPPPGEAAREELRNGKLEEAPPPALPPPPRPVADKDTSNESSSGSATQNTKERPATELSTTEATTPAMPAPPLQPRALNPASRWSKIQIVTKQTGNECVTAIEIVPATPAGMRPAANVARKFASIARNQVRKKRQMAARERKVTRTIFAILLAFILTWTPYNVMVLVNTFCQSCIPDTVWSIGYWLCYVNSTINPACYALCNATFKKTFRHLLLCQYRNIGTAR
Description: as §1, §2, §3, §4, §5

| Structure (SMILES) | Emax [1] | M1 Activity [1] | Emax [2] | M4 Activity [2] |
| --- | --- | --- | --- | --- |
| CCOC(=O)N1C2CCC1CC(N1CCC3(CC1)CN(S(=O)(=O)c1ccc(C)cc1)Cc1ccccc13)C2 (centres unmarked) [compound 18] | 25 to 100% | +++ (activity was measured to be less than 1.0 μM) | 25 to 100% | +++ (activity was measured to be less than 1.0 μM) |
| CCOC(=O)N1CCC(N2CCC3(CC2)CN(C(=O)c2cnon2)Cc2ccccc23)CC1 [compound 225] | 25 to 100% | +++ (activity was measured to be less than 1.0 μM) | 25 to 100% | +++ (activity was measured to be less than 1.0 μM) |
| COCCOC(=O)N1CCC(N2CCC3(CC2)CN(C(C)=O)Cc2ccccc23)CC1 [compound 158] | 25 to 100% | +++ (activity was measured to be less than 1.0 μM) | 25 to 100% | +++ (activity was measured to be less than 1.0 μM) |
| CCOC(=O)N1CCC(N2CCC3(CC2)CN(C(=O)c2nc(C)oc2C)Cc2ccccc23)CC1 [compound 261] | 25 to 100% | +++ (activity was measured to be less than 1.0 μM) | 25 to 100% | +++ (activity was measured to be less than 1.0 μM) |
| CC(=O)N1Cc2ccccc2C2(CCN(C3CCN(C(=O)O[C@@H]4CCOC4)CC3)CC2)C1 [compound 32] | 25 to 100% | +++ (activity was measured to be less than 1.0 μM) | 25 to 100% | +++ (activity was measured to be less than 1.0 μM) |
| CC(=O)N1Cc2ccccc2C2(CCN(Cc3sc(C)nc3C)CC2)C1 [compound 301] | < 25% | + (activity was measured to be greater than 5.0 μM) | < 25% | + (activity was measured to be greater than 5.0 μM) |
| CCOC(=O)N1C2CCC1CC(N1CCC3(CC1)CN(C(=O)C1CCC1)Cc1ccccc13)C2 (centres unmarked) [compound 319] | 25 to 100% | +++ (activity was measured to be less than 1.0 μM) | 25 to 100% | +++ (activity was measured to be less than 1.0 μM) |
| CCOC(=O)N1C2CCC1CC(N1CCC3(CC1)CN(S(=O)(=O)c1ccc(OC(F)(F)F)cc1)Cc1ccccc13)C2 (centres unmarked) [compound 67] | 25 to 100% | ++ (activity was measured to be from 1.0 μM to 5.0 μM) | 25 to 100% | +++ (activity was measured to be less than 1.0 μM) |
| COC(=O)c1cccc(CN2CCC3(CC2)CN(C(C)=O)Cc2ccccc23)c1 [compound 105] | < 25% | + (activity was measured to be greater than 5.0 μM) | < 25% | + (activity was measured to be greater than 5.0 μM) |
| CCOC(=O)N1C2CCC1CC(N1CCC3(CC1)CN(S(=O)(=O)c1ccccc1Cl)Cc1ccccc13)C2 (centres unmarked) [compound 69] | 25 to 100% | +++ (activity was measured to be less than 1.0 μM) | 25 to 100% | +++ (activity was measured to be less than 1.0 μM) |
| COc1cccc(OC)c1CN1CCC2(CC1)CN(C(C)=O)Cc1ccccc12 [compound 192] | 25 to 100% | + (activity was measured to be greater than 5.0 μM) | 25 to 100% | + (activity was measured to be greater than 5.0 μM) |
| CCC(=O)CN1CCC2(CC1)CN(C(C)=O)Cc1ccccc12 [compound 187] | < 25% | + (activity was measured to be greater than 5.0 μM) | < 25% | + (activity was measured to be greater than 5.0 μM) |
| CC(=O)N1Cc2ccccc2C2(CCN(Cc3cc(C)ccc3F)CC2)C1 [compound 331] | < 25% | + (activity was measured to be greater than 5.0 μM) | < 25% | + (activity was measured to be greater than 5.0 μM) |
| CCOC(=O)N1CCC(CN2CCC3(CC2)CN(C(=O)C2CCC2)Cc2ccccc23)CC1 [compound 284] | 25 to 100% | +++ (activity was measured to be less than 1.0 μM) | 25 to 100% | +++ (activity was measured to be less than 1.0 μM) |
| CC(=O)N1Cc2ccccc2C2(CCN(C3CCN(C(=O)OC(C)(C)C)CC3)CC2)C1 [compound 177] | 25 to 100% | +++ (activity was measured to be less than 1.0 μM) | < 25% | + (activity was measured to be greater than 5.0 μM) |
| COC(=O)N1CC(CN2CCC3(CC2)CN(C(C)=O)Cc2ccccc23)C1 [compound 50] | < 25% | + (activity was measured to be greater than 5.0 μM) | < 25% | + (activity was measured to be greater than 5.0 μM) |
| CC(=O)N1Cc2ccccc2C2(CCN(Cc3ccc(F)cc3)CC2)C1 [compound 115] | < 25% | + (activity was measured to be greater than 5.0 μM) | < 25% | + (activity was measured to be greater than 5.0 μM) |
| CCOC(=O)N1C2CCC1CC(N1CCC3(CC1)CN(S(=O)(=O)c1ccc(C#N)cc1)Cc1ccccc13)C2 (centres unmarked) [compound 355] | 25 to 100% | +++ (activity was measured to be less than 1.0 μM) | 25 to 100% | +++ (activity was measured to be less than 1.0 μM) |
| CC(=O)N1Cc2ccccc2C2(CCN(C3CCSCC3)CC2)C1 [compound 268] | 25 to 100% | ++ (activity was measured to be from 1.0 μM to 5.0 μM) | 25 to 100% | ++ (activity was measured to be from 1.0 μM to 5.0 μM) |
| CC(=O)N1Cc2ccccc2C2(CCN(Cc3ccc(F)cc3F)CC2)C1 [compound 312] | < 25% | + (activity was measured to be greater than 5.0 μM) | < 25% | + (activity was measured to be greater than 5.0 μM) |
